Data from US9365540B2, “Benzimidazole derivatives as MCH receptor antagonists” (Takeda Pharmaceutical Company Limited, priority 2012, dated 2016).

Target: T1, human MCH receptor 1 (MCHR1) (Homo sapiens, UniProt Q99705)
T1 construct: expressed in transfected cells; host or cells: CHO cell clone 57 (membrane fraction)
Assay: human MCH receptor 1 (MCHR1) competitive binding assay with [125I]-MCH(4-19)
Details: test compound 0.1 μM, human MCHR1-expressing CHO cell membrane fraction; for inhibition at 0.1 µM: read-out: Binding inhibition rate % (0.1 μM)
Method: Determination of human MCH receptor 1 (MCHR1) competitive inhibitory activity of test compound using binding assay
1. Preparation of Membrane Fraction
Using human MCHR1 (=SLC-1 receptor)-expressing CHO cell clone 57 described in WO01/82925, MCHR1-expressing CHO cell membrane fractions were prepared by the following method.
In phosphate buffered saline (pH 7.4) supplemented with 5 mM EDTA (ethylenediaminetetraacetic acid) were respectively suspended human MCHR1-expressing CHO cells (1×10^8 cells) and centrifuged. Homogenate buffer (10 mL, 10 mM NaHCO3, 5 mM EDTA, pH 7.5, 0.5 mM PMSF (phenylmethylsulfonyl fluoride), 20 mg/L leupeptin, 4 mg/L E-64, 1 mg/L pepstatin A) was added to the pellets of the cells and, using Polytron Homogenizer, the mixture was homogenated. The supernatant obtained after centrifugation at 400×g for 10 min was further centrifuged at 100,000×g for 1 hr to give precipitate of the membrane fraction. The precipitate were suspended in 2 mL of assay buffer [20 mM Tris-HCl (pH 7.5), 5 mM EDTA, 0.5 mM PMSF, 20 mg/L leupeptin, 4 mg/L E-64, 1 mg/L pepstatin A]. The membrane fractions were suspended in assay buffer to a protein concentration of 2 mg/mL, and after dispensing, preserved at −80° C. and used upon thawing each time when in use.
The MCHR1 ligand binding inhibitory activity of the test compound was determined as follows.
An MCHR1-expressing CHO cell membrane fraction (173 μL) diluted with an assay buffer was dispensed to a 96 well polypropylene plate (3363, Corning). DMSO solution (2 μL), 33 μM cold MCH(1-19) diluted with DMSO solution (2 μL), or a test compound solution diluted with DMSO solution to various concentrations (2 μL) was added, and lastly, [^125I]-MCH (4-19) diluted with assay buffer (hereinafter, sometimes to be referred to as “hot MCH”, 25 μL) was added to each well. The mixture was reacted with stirring at room temperature for 1 hr, and the plate was set on FilterMate Harvester (PerkinElmer). Using a treating glass filter plate (GF/C, PerkinElmer) with polyethyleneimine, which had been previously set, the plate was suction-filtered and washed three times with washing buffer (50 mM Tris-HCl buffer pH 7.5). The glass filter plate was dried, MicroScinti0 (PerkinElmer) was added at 25 μL/well, and the resulting radioactivity was measured by TopCount liquid scintillation counter (PerkinElmer). The binding inhibition rate of the test compound was calculated by the following formula. Binding inhibition (%)=100−(radioactivity upon addition of test compound and hot MCH−radioactivity upon addition of cold MCH and hot MCH solution)/(radioactivity upon addition of DMSO solution and hot MCH−radioactivity upon addition of cold MCH and hot MCH solution)×100
The binding inhibition rates (%) of test compounds (0.1 μM) as measured using human MCHR1-expressing CHO cell are shown in Table 2.

T1 sequence (Q99705 whole entry): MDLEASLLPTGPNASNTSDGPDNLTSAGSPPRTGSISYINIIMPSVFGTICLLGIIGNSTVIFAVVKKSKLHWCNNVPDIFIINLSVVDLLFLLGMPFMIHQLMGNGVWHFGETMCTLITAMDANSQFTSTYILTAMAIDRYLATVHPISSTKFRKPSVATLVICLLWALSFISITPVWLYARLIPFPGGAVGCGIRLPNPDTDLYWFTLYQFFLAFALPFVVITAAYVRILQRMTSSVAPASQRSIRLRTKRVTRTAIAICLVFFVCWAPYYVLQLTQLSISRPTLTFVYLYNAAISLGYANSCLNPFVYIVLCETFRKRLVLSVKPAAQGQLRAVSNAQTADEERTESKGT

Row | Compound | inhibition at 0.1 µM [%] | Binding inhibition rate % (0.1 μM) [%]
1 | Cn1c([C@@H]2C[C@@H]2C(C)(C)O)nc2ccc(-n3ccc(OCc4ccccc4)cc3=O)cc21 (racemic) [Example 152, 4-(Benzyloxy)-1-(2-((1RS,2SR)-2-(2-hydroxypropan-2-yl)cyclopropyl)-1-methyl-1H-benzimidazol-6-yl)pyridin-2(1H)-one] | 75 | 
2 | Cn1c([C@@H]2C[C@@H]2C(C)(C)F)nc2ccc(-n3ccc(OCc4ccccc4)cc3=O)cc21 (racemic) [Example 155, 4-(Benzyloxy)-1-(2-((1RS,2SR)-2-(2-fluoropropan-2-yl)cyclopropyl)-1-methyl-1H-benzimidazol-6-yl)pyridin-2(1H)-one] | 54 | 
3 | Cn1c([C@@H]2C[C@@H]2C(C)(C)O)nc2ccc(-n3ccc(OCc4ccc(Cl)s4)cc3=O)cc21 (racemic) [Example 203, 4-((5-Chloro-2-thienyl)methoxy)-1-(2-((1RS,2SR)-2-(2-hydroxypropan-2-yl)cyclopropyl)-1-methyl-1H-benzimidazol-6-yl)pyridin-2(1H)-one] | 91 | 
4 | Cn1c([C@@H]2C[C@@H]2C(C)(C)O)nc2ccc(-n3ccc(OCc4ccc(Cl)cn4)cc3=O)cc21 (racemic) [Example 204, 4-((5-Chloropyridin-2-yl)methoxy)-1-(2-((1RS,2SR)-2-(2-hydroxypropan-2-yl)cyclopropyl)-1-methyl-1H-benzimidazol-6-yl)pyridin-2(1H)-one] | 67 | 
5 | Cn1c([C@@H]2C[C@@H]2C(C)(C)O)nc2ccc(-n3ccc(OCc4ccc(F)cc4)cc3=O)cc21 (racemic) [Example 205, 4-((4-Fluorobenzyl)oxy)-1-(2-((1RS,2SR)-2-(2-hydroxypropan-2-yl)cyclopropyl)-1-methyl-1H-benzimidazol-6-yl)pyridin-2(1H)-one] | 76 | 
6 | CCC(O)(CC)[C@H]1C[C@H]1c1nc2ccc(-n3ccc(OCc4ccc(Cl)cc4)cc3=O)cc2n1C (racemic) [Example 206, 4-((4-Chlorobenzyl)oxy)-1-(2-((1RS,2SR)-2-(3-hydroxypentan-3-yl)cyclopropyl)-1-methyl-1H-benzimidazol-6-yl)pyridin-2(1H)-one] | 95 | 
7 | Cn1c([C@@H]2C[C@@H]2C(C)(C)O)nc2ccc(-n3ccc(OCc4ccc(F)c(F)c4)cc3=O)cc21 (racemic) [Example 212, 4-((3,4-Difluorobenzyl)oxy)-1-(2-((1RS,2SR)-2-(2-hydroxypropan-2-yl)cyclopropyl)-1-methyl-1H-benzimidazol-6-yl)pyridin-2(1H)-one] | 80 | 
8 | Cn1c([C@@H]2C[C@@H]2C(C)(C)O)nc2ccc(-n3ccc(OCc4csc(Cl)c4)cc3=O)cc21 (racemic) [Example 215, 4-((5-Chloro-3-thienyl)methoxy)-1-(2-((1RS,2SR)-2-(2-hydroxypropan-2-yl)cyclopropyl)-1-methyl-1H-benzimidazol-6-yl)pyridin-2(1H)-one] | 92 | 
9 | Cn1c([C@@H]2C[C@@H]2C(C)(C)O)nc2ccc(-n3ccc(OCc4ccc(Cl)c(F)c4)cc3=O)cc21 (racemic) [Example 220, 4-((4-Chloro-3-fluorobenzyl)oxy)-1-(2-((1RS,2SR)-2-(2-hydroxypropan-2-yl)cyclopropyl)-1-methyl-1H-benzimidazol-6-yl)pyridin-2(1H)-one] | 81 | 
10 | Cn1c([C@@H]2C[C@@H]2C(C)(C)O)nc2ccc(-n3ccc(OCc4ccc(F)c(Cl)c4)cc3=O)cc21 (racemic) [Example 222, 4-((3-Chloro-4-fluorobenzyl)oxy)-1-(2-((1RS,2SR)-2-(2-hydroxypropan-2-yl)cyclopropyl)-1-methyl-1H-benzimidazol-6-yl)pyridin-2(1H)-one] | 80 | 
11 | CCn1c(C2CC2)nc2ccc(-n3ccc(OCc4ccc(F)cc4)cc3=O)cc21 [Example 20, 1-(2-Cyclopropyl-1-ethyl-1H-benzimidazol-6-yl)-4-((4-fluorobenzyl)oxy)pyridin-2(1H)-one] | 59 | 
12 | Cc1c(C2CC2)nc2ccc(-n3ccc(OCc4ccc(F)cc4F)cc3=O)cn12 [Example 22, 1-(2-Cyclopropyl-3-methylimidazo[1,2-a]pyridin-6-yl)-4-((2,4-difluorobenzyl)oxy)pyridin-2(1H)-one] | 81 | 
13 | CCc1nc2ccc(-n3ccc(OCc4ccccc4)cc3=O)cc2n1C [Example 47, 4-(Benzyloxy)-1-(2-ethyl-1-methyl-1H-benzimidazol-6-yl)pyridin-2(1H)-one] |  | 62
14 | Cc1csc(COc2ccn(-c3ccc4nc(C5CC5)n(C)c4c3)c(=O)c2)c1 [Example 56, 1-(2-Cyclopropyl-1-methyl-1H-benzimidazol-6-yl)-4-((4-methyl-2-thienyl)methoxy)pyridin-2(1H)-one] | 61 | 
15 | COc1ccc(COc2ccn(-c3ccc4nc(C5CC5)n(C)c4c3)c(=O)c2)cc1 [Example 77, 1-(2-Cyclopropyl-1-methyl-1H-benzimidazol-6-yl)-4-((4-methoxybenzyl)oxy)pyridin-2(1H)-one] | 71 | 

More lines, now with the values ahead:

Row | inhibition at 0.1 µM [%] | Binding inhibition rate % (0.1 μM) [%] | Compound
16 | 69 |  | Cn1c([C@H]2C[C@H]2F)nc2ccc(-n3ccc(OCc4ccc(Cl)cc4)cc3=O)cc21 (racemic) [Example 136, 4-((4-Chlorobenzyl)oxy)-1-(2-((1RS,2RS)-2-fluorocyclopropyl)-1-methyl-1H-benzimidazol-6-yl)pyridin-2(1H)-one]
17 |  | 68 | Cn1c([C@H]2C[C@@H]2F)nc2ccc(-n3ccc(OCc4ccc(Cl)cc4)cc3=O)cc21 (racemic) [Example 137, 4-((4-Chlorobenzyl)oxy)-1-(2-((1RS,2SR)-2-fluorocyclopropyl)-1-methyl-1H-benzimidazol-6-yl)pyridin-2(1H)-one]
18 | 55 |  | Cn1c([C@@H]2C[C@@H]2CO)nc2ccc(-n3ccc(OCc4ccc(Cl)cc4)cc3=O)cc21 (racemic) [Example 149, 4-((4-Chlorobenzyl)oxy)-1-(2-((1RS,2SR)-2-(hydroxymethyl)cyclopropyl)-1-methyl-1H-benzimidazol-6-yl)pyridin-2(1H)-one]
19 | 60 |  | Cn1c([C@@H]2CC[C@@H]2C(C)(C)O)nc2ccc(-n3ccc(OCc4ccc(Cl)cc4)cc3=O)cc21 (racemic) [Example 223, 4-((4-Chlorobenzyl)oxy)-1-(2-((1RS,2SR)-2-(2-hydroxypropan-2-yl)cyclobutyl)-1-methyl-1H-benzimidazol-6-yl)pyridin-2(1H)-one]
20 | 58 |  | Cc1c(C2CC2)nc2ccc(-n3ccc(OCc4ccc(C(F)(F)F)cc4)cc3=O)cn12 [Example 5, 1-(2-Cyclopropyl-3-methylimidazo[1,2-a]pyridin-6-yl)-4-((4-(trifluoromethyl)benzyl)oxy)pyridin-2(1H)-one]
21 | 76 |  | CCn1c(C2CC2)nc2ccc(-n3ccc(OCc4ccc(Cl)cc4)cc3=O)cc21 [Example 21, 4-((4-Chlorobenzyl)oxy)-1-(2-cyclopropyl-1-ethyl-1H-benzimidazol-6-yl)pyridin-2(1H)-one]
22 | 58 |  | Cc1nc2ccc(-n3ccc(OCc4ccc(Cl)cc4)cc3=O)cn2c1C [Example 25, 4-((4-Chlorobenzyl)oxy)-1-(2,3-dimethylimidazo[1,2-a]pyridin-6-yl)pyridin-2(1H)-one]
23 | 55 |  | CCCn1c(C2CC2)nc2ccc(-n3ccc(OCc4ccc(Cl)cc4)cc3=O)cc21 [Example 27, 4-((4-Chlorobenzyl)oxy)-1-(2-cyclopropyl-1-propyl-1H-benzimidazol-6-yl)pyridin-2(1H)-one]
24 | 83 |  | Cc1c(C2CC2)nc2ccc(-n3ccc(OCc4ccc(Cl)cn4)cc3=O)cn12 [Example 32, 4-((5-Chloropyridin-2-yl)methoxy)-1-(2-cyclopropyl-3-methylimidazo[1,2-a]pyridin-6-yl)pyridin-2(1H)-one]
25 | 80 |  | CC1CC1c1nc2ccc(-n3ccc(OCc4ccc(Cl)cc4)cc3=O)cc2n1C (centres unmarked) [Example 90, 4-((4-Chlorobenzyl)oxy)-1-(1-methyl-2-(2-methylcyclopropyl)-1H-benzimidazol-6-yl)pyridin-2(1H)-one]
26 | 50 |  | Cn1c(C2CCC2)nc2ccc(-n3ccc(OCc4ccc(Cl)cc4)cc3=O)cc21 [Example 109, 4-((4-Chlorobenzyl)oxy)-1-(2-cyclobutyl-1-methyl-1H-benzimidazol-6-yl)pyridin-2(1H)-one]
